The term inhibition denotes the share of the control response that was lost under treatment. What is called IC50 is the concentration needed to halve the response being measured. Read a low IC50 as higher potency.

The results in this text go back to patent publication US5736548A, “6-aryl pyrazolo[3,4-D] pyrimidin-4-ones and compositions and method of use thereof” (Sanofi, priority 1997, dated 1998).

The target of the assay is cGMP-PDE V (Homo sapiens, UniProt O76074). Description: biochemical. Also on record: species or system various animal species and man. Particulars: for IC50: values separated by / and marked * are separate experimental runs. The protocol: The cGMP-PDE and other PDE isozymes were isolated from cardiovascular tissues (heart and aorta) of various animal species and man by anion-exchange and affinity chromatography as described by Silver et al., Sec. Messeng. Phos. 13:13-25, 1991; PDE activity, in the presence and absence of test compounds was determined essentially as described by Thompson et al., Adv. Cyclic Nucleotide Res. 10:69-92. To determine the potency and selectivity of compounds as PDE inhibitors, compounds are screened for their effect on cyclic nucleotide hydrolysis at 10 μM. […] The IC50 values are calculated from concentration-response curves as described by Tallarida and Murray, Manual of Pharmacologic Calculations with Computer Programs, Procedure 8, Graded Dose-response, pp. 14-19, Springer-Verlag, New York, 1981.

Where [1] appears, read: 0.1 μM, read-out: Percent Inhibition cGMP-PDE V.
Where [2] appears, read: 1 μM, read-out: Percent Inhibition cGMP-PDE V.
[3] abbreviates: read-out: Percent Inhibition cGMP-PDE V.
The mark [4] stands for this setting: 0.01 μM, read-out: Percent Inhibition cGMP-PDE V.

Values joined by “and” are separate entries in the source; they are usually repeats but may differ in a detail not shown here. Identical values can stand only once. Counter-ions that a name gives are not always drawn. Like-named read-outs stand apart in the source and are kept apart here.

Consider “1-cyclopentyl-3-ethyl-6-[2-methyl-2,3-dihydrobenzo[b]furan-5-yl]pyrazolo[3,4-d]pyrimidin-4-one [Example 39]”, for which the “Percent Inhibition cGMP-PDE V” value (0.01 μM) is 24% and the “Percent Inhibition cGMP-PDE V” value (0.1 μM) turned out to be 65%.
With `CCc1nn(C2CCCC2)c2nc(-c3ccc(-n4ccnc4)cc3)[nH]c(=O)c12` [8 (b), 1-cyclopentyl-3-ethyl-6-[4-(1-imidazolyl)phenyl]pyrazole[3,4-d]pyrimidin-4-one], under setting [1], the inhibition at 0.1 µM turned out to be 32%. Further, the inhibition at 1 µM under setting [2] stood at 70%.
`CCc1[nH]n(C2CCCC2)c2nc(-c3ccccc3OCCN3CCOCC3)nc(=O)c1-2` [11 (c), 1-cyclopentyl-3-ethyl-6-[2-[2-(4-morpholinyl)ethoxy]phenyl]pyrazolo[3,4-d]pyrimidin-4-one monohydrochloride]: the IC50 is 2700 nM and 4500 nM.
In the case of `CCOC(=O)COc1ccccc1-c1nc2n(C3CCCC3)[nH]c(CC)c-2c(=O)n1` [12 (b), 1-cyclopentyl-3-ethyl-6-[2-(ethoxycarbonylmethoxy)phenyl]pyrazolo [3,4-d]pyrimidin-4-one], the inhibition at 0.1 µM under setting [1] was 30%. Moreover, the inhibition at 1 µM under setting [2] is 74%.
Turning to `CCCOc1ccccc1-c1nc2[nH]ncc2c(=O)[nH]1` [17 (c), 6-(2-propoxyphenyl)pyrazolo[3,4-d]pyrimidin-4-one 1/4 hydrate], under setting [3], the inhibition at 0.1 µM came out at 14%, the inhibition at 1 µM amounted to 19% and the inhibition at 10 µM was found to be 39%.
`CCc1[nH]n(C2CCCC2)c2nc(-c3ccc(OCCN4CCOCC4)cc3)nc(=O)c1-2` [18 (b), 1-cyclopentyl-3-ethyl-6-[4-[2-(4-morpholinyl)ethoxy]phenyl]pyrazolo[3,4-d]pyrimidin-4-one] came in with an IC50 of 370 nM. This lies in the sub-micromolar range.
Same read-out and setting: then `CCOC(=O)COc1cccc(-c2nc3n(C4CCCC4)[nH]c(CC)c-3c(=O)n2)c1` [20 (b), 1-cyclopentyl-3-ethyl-6-[3-(ethoxycarbonylmethoxy)phenyl]pyrazolo[3,4-d]pyrimidin-4-one], with 94 nM.
Same read-out and setting: then `CCc1nn(C2CCCC2)c2nc(-c3cccc(OCCN(C)C)c3)[nH]c(=O)c12` [23 (c)], with 540 nM.
Turning to `CCc1[nH]n(C2CCCC2)c2nc(-c3ccccc3OCCCN3CCOCC3)nc(=O)c1-2` [26 (c), 1-cyclopentyl-3-ethyl-6-[2-[3-(4-morpholinyl)propoxy]phenyl]pyrazolo[3,4-d]pyrimidin-4-one], under setting [2], the inhibition at 1 µM stood at 28%.
For `CCc1[nH]n(C2CCCC2)c2nc(-c3ccccc3-n3ccnc3)nc(=O)c1-2` [27 (c), 1-cyclopentyl-3-ethyl-6-[2-(1-imidazolyl)phenyl]pyrazolo[3,4-d]pyrimidin-4-one], the inhibition at 0.1 µM under setting [1] was found to be 21%. Further, the inhibition at 1 µM under setting [2] was 73%.
`CCOc1cc(Cl)ccc1-c1nc2n(C3CCCC3)[nH]c(CC)c-2c(=O)n1` [29 (b), 1-cyclopentyl-3-ethyl-6-(4-chloro-2-ethoxyphenyl)pyrazolo[3,4-d]pyrimidin-4-one]: the IC50 is 7.4 nM and 8.4 nM.
In the case of `CCc1[nH]n(C2CCCC2)c2nc(-c3ccccc3OCCOC)nc(=O)c1-2` [34 (b), 1-cyclopentyl-3-ethyl-6-[2-[2-(methoxy)ethoxy]phenyl]pyrazolo[3,4-d]pyrimidin-4-one], the inhibition at 0.01 µM under setting [4] turned out to be 28%. In addition, the inhibition at 0.1 µM under setting [1] came out at 56%.
For the compound `CCc1[nH]n(C2CCCC2)c2nc(-c3ccc(OC)c(OCCN4CCOCC4)c3)nc(=O)c1-2` [35 (b), 1-cyclopentyl-3-ethyl-6-[4-methoxy-3-[2-(4-morpholinyl)ethoxy]phenyl]pyrazolo[3,4-d]pyrimidin-4-one], under setting [4], the inhibition at 0.01 µM was 13%. Also, the inhibition at 0.1 µM under setting [1] came to 58%.
`CCOc1cc(N(CC)CC)ccc1-c1nc2n(C3CCCC3)[nH]c(CC)c-2c(=O)n1` [37 (b), 1-cyclopentyl-3-ethyl-6-[2-ethoxy-4-(diethylamino)phenyl]pyrazolo[3,4-d]pyrimidin-4-one]: the inhibition at 0.1 µM under setting [1] is 31%. The inhibition at 1 µM under setting [2] came out at 73%.
